What was measured:
[1] = target: isolated recombinant JAK2 kinase domain (Homo sapiens (Human), UniProt O60674); test: JAK2 enzyme assay (Caliper LabChip, Ki); assay type: biochemical; settings: isolated recombinant JAK2 kinase domain, 0.2 nM enzyme, ATP 25 μM
[2] = target: isolated recombinant JAK1 kinase domain (Homo sapiens (Human), UniProt P23458); test: JAK1 enzyme assay (Caliper LabChip, Ki); assay type: biochemical; settings: isolated recombinant JAK1 kinase domain, 1.5 nM enzyme, ATP 25 μM
Sequence of isolated recombinant JAK1 kinase domain (P23458 875-1153): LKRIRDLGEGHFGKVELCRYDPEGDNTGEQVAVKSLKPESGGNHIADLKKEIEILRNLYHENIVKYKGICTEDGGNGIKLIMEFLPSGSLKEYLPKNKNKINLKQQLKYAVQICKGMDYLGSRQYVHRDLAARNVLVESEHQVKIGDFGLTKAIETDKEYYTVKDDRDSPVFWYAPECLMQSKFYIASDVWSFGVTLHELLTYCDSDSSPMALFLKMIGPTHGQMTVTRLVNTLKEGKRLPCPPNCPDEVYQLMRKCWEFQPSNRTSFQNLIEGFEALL

Sequence of isolated recombinant JAK2 kinase domain (O60674 849-1124): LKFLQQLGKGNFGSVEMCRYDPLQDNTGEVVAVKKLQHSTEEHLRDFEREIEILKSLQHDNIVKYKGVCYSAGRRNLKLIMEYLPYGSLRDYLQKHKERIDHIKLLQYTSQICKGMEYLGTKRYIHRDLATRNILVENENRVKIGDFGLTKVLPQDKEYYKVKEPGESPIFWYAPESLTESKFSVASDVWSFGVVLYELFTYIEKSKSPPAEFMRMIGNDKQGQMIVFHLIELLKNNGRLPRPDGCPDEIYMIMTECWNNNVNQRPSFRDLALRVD

Compound | Ki [1] | Ki [2]
CN1CCN(C(=O)Cn2cc(Nc3nc4c(N5CC6CCC(C5)N6S(=O)(=O)Cc5cccc(F)c5)cccn4n3)cn2)CC1 [Example 159, 2-[4-[[8-[8-[(3-fluorophenyl)methylsulfonyl]-3,8-diazabicyclo[3.2.1]octan-3-yl]-[1,2,4]triazolo[1,5-a]pyridin-2-yl]amino]pyrazol-1-yl]-1-(4-methylpiperazin-1-yl)ethanone] | 2.9 nM | 0.7 nM
CN1CCN(C(=O)Cn2cc(Nc3nc4c(N5CC6CCC(C5)N6S(=O)(=O)Cc5ccc(F)cc5)cccn4n3)cn2)CC1 [Example 160, 2-[4-[[8-[8-[(4-fluorophenyl)methylsulfonyl]-3,8-diazabicyclo[3.2.1]octan-3-yl]-[1,2,4]triazolo[1,5-a]pyridin-2-yl]amino]pyrazol-1-yl]-1-(4-methylpiperazin-1-yl)ethanone] | 0.9 nM | 0.6 nM
CN1CCN(C(=O)Cn2cc(Nc3nc4c(N5CC6CCC(C5)N6S(=O)(=O)Cc5ccccc5Cl)cccn4n3)cn2)CC1 [Example 161, 2-[4-[[8-[8-[(2-chlorophenyl)methylsulfonyl]-3,8-diazabicyclo[3.2.1]octan-3-yl]-[1,2,4]triazolo[1,5-a]pyridin-2-yl]amino]pyrazol-1-yl]-1-(4-methylpiperazin-1-yl)ethanone] | 0.7 nM | 0.6 nM
CN1CCN(C(=O)Cn2cc(Nc3nc4c(N5C[C@H]6CC[C@@H](C5)[C@H]6OCc5ccc(F)nc5)cccn4n3)cn2)CC1 [Example 162, 1-(4-methylpiperazin-1-yl)-2-[4-[[8-[rac-(1S,5R)-8-[(6-fluoro-3-pyridyl)methoxy]-3-azabicyclo[3.2.1]octan-3-yl]-[1,2,4]triazolo[1,5-a]pyridin-2-yl]amino]pyrazol-1-yl]ethanone] | 0.6 nM | 0.6 nM
CN1CCN(C(=O)Cn2cc(Nc3nc4c(N5C[C@H]6CC[C@@H](C5)[C@H]6N(C)C(=O)CC(F)(F)F)cccn4n3)cn2)CC1 [Example 164, 3,3,3-trifluoro-N-methyl-N-[rac-(1S,5R)-3-[2-[[1-[2-(4-methylpiperazin-1-yl)-2-oxo-ethyl]pyrazol-4-yl]amino]-[1,2,4]triazolo[1,5-a]pyridin-8-yl]-3-azabicyclo[3.2.1]octan-8-yl]propanamide] | 1 nM | 0.7 nM
CN1CCN(C(=O)Cn2cc(Nc3nc4c(N5CC6CCC(C5)N6S(=O)(=O)Cc5cccc(Cl)c5)cccn4n3)cn2)CC1 [Example 165, 2-[4-[[8-[8-[(3-chlorophenyl)methylsulfonyl]-3,8-diazabicyclo[3.2.1]octan-3-yl]-[1,2,4]triazolo[1,5-a]pyridin-2-yl]amino]pyrazol-1-yl]-1-(4-methylpiperazin-1-yl)ethanone] | 0.8 nM | 0.4 nM
CN1CCN(C(=O)Cn2cc(Nc3nc4c(N5CC6CCC(C5)N6S(=O)(=O)Cc5ccc(Cl)cc5)cccn4n3)cn2)CC1 [Example 166, 2-[4-[[8-[8-[(4-chlorophenyl)methylsulfonyl]-3,8-diazabicyclo[3.2.1]octan-3-yl]-[1,2,4]triazolo[1,5-a]pyridin-2-yl]amino]pyrazol-1-yl]-1-(4-methylpiperazin-1-yl)ethanone] | 0.9 nM | 0.7 nM
CN1CCN(C(=O)Cn2cc(Nc3nc4c(N5CC6CCC(C5)N6S(=O)(=O)Cc5ccccc5C(F)(F)F)cccn4n3)cn2)CC1 [Example 167, 1-(4-methylpiperazin-1-yl)-2-[4-[[8-[8-([2-(trifluoromethyl)phenyl]methylsulfonyl]-3,8-diazabicyclo[3.2.1]octan-3-yl]-[1,2,4]triazolo[1,5-a]pyridin-2-yl]amino]pyrazol-1-yl]ethanone] | 1 nM | 0.6 nM
CN1CCN(C(=O)Cn2cc(Nc3nc4c(N5CC6CCC(C5)N6S(=O)(=O)Cc5ccc(C#N)cc5)cccn4n3)cn2)CC1 [Example 168, 4-[[3-[2-[[1-[2-(4-methylpiperazin-1-yl)-2-oxo-ethyl]pyrazo1-4-yl]amino]-[1,2,4]triazolo[1,5-a]pyridin-8-yl]-3,8-diazabicyclo[3.2.1]octan-8-yl]sulfonylmethyl]-benzonitrile] | 4.4 nM | 2.7 nM
CSc1cccc(S(=O)(=O)N2C3CCC2CN(c2cccn4nc(Nc5cnn(CC(=O)N6CCN(C)CC6)c5)nc24)C3)c1 [Example 169, 1-(4-methylpiperazin-1-yl)-2-[4-[[8-[8-(3-methylsulfanylphenyl)sulfonyl-3,8-diazabicyclo[3.2.1]octan-3-yl]-[1,2,4]triazolo[1,5-a]pyridin-2-yl]amino]pyrazol-1-yl]ethanone] | 0.6 nM | 0.6 nM
CN1CCN(C(=O)Cn2cc(Nc3nc4c(N5CC6CCC(C5)N6C(=O)N5CC(F)C5)cccn4n3)cn2)CC1 [Example 170, 2-[4-[[8-[8-(3-fluoroazetidine-1-carbonyl)-3,8-diazabicyclo[3.2.1]octan-3-yl]-[1,2,4]triazolo[1,5-a]pyridin-2-yl]amino]pyrazol-1-yl]-1-(4-methylpiperazin-1-yl)ethanone] | 0.2 nM | 0.3 nM
CSC1CN(C(=O)N2C3CCC2CN(c2cccn4nc(Nc5cnn(CC(=O)N6CCN(C)CC6)c5)nc24)C3)C1 [Example 171, 1-(4-methylpiperazin-1-yl)-2-[4-[[8-[8-(3-methylsulfanylazetidine-1-carbonyl)-3,8-diazabicyclo[3.2.1]octan-3-yl]-[1,2,4]triazolo[1,5-a]pyridin-2-yl]amino]pyrazol-1-yl]ethanone] | 2.9 nM | 1.3 nM
CSC1CCN(C(=O)N2C3CCC2CN(c2cccn4nc(Nc5cnn(CC(=O)N6CCN(C)CC6)c5)nc24)C3)C1 (centres unmarked) [Example 172, 1-(4-methylpiperazin-1-yl)-2-[4-[[8-[8-(3-methylsulfanylpyrrolidine-1-carbonyl)-3,8-diazabicyclo[3.2.1]octan-3-yl]-[1,2,4]triazolo[1,5-a]pyridin-2-yl]amino]pyrazol-1-yl]ethanone] | 0.9 nM | 0.6 nM
CN1CCN(C(=O)Cn2cc(Nc3nc4c(N5CC6CCC(C5)N6C(=O)N5CC(F)(F)C5)cccn4n3)cn2)CC1 [Example 173, 2-[4-[[8-[8-(3,3-difluoroazetidine-1-carbonyl)-3,8-diazabicyclo[3.2.1]octan-3-yl]-[1,2,4]triazolo[1,5-a]pyridin-2-yl]amino]pyrazol-1-yl]-1-(4-methylpiperazin-1-yl)ethanone] | 0.5 nM | 0.5 nM
CN1CCN(C(=O)Cn2cc(Nc3nc4c(N5CC6CCC(C5)N6S(=O)(=O)CCCC(F)(F)F)cccn4n3)cn2)CC1 [Example 174, 1-(4-methylpiperazin-1-yl)-2-[4-[[8-[8-(4,4,4-trifluorobutylsulfonyl)-3,8-diazabicyclo[3.2.1]octan-3-yl]-[1,2,4]triazolo[1,5-a]pyridin-2-yl]amino]pyrazol-1-yl]ethanone] | 1.1 nM | 0.7 nM
CN1CCN(C(=O)Cn2cc(Nc3nc4c(N5CC6CCC(C5)N6S(=O)(=O)c5cccnc5)cccn4n3)cn2)CC1 [Example 175, 1-(4-methylpiperazin-1-yl)-2-[4-[[8-[8-(3-pyridylsulfonyl)-3,8-diazabicyclo[3.2.1]octan-3-yl]-[1,2,4]triazolo[1,5-a]pyridin-2-yl]amino]pyrazol-1-yl]ethanone] | 0.9 nM | 0.6 nM
CN1CCN(C(=O)Cn2cc(Nc3nc4c(N5CC6CCC(C5)N6S(=O)(=O)CCCC#N)cccn4n3)cn2)CC1 [Example 176, 4-[[3-[2-[[1-[2-(4-methylpiperazin-1-yl)-2-oxo-ethyl]pyrazol-4-yl]amino]-[1,2,4]triazolo[1,5-a]pyridin-8-yl]-3,8-diazabicyclo[3.2.1]octan-8-yl]sulfonyl]butanenitrile] | 3.4 nM | 0.7 nM
CN1CCN(C(=O)Cn2cc(Nc3nc4c(N5CC6CCC(C5)N6S(=O)(=O)C5CC5)cccn4n3)cn2)CC1 [Example 177, 2-[4-[[8-(8-cyclopropylsulfonyl-3,8-diazabicyclo[3.2.1]octan-3-yl)-[1,2,4]triazolo[1,5-a]pyridin-2-yl]amino]pyrazol-1-yl]-1-(4-methylpiperazin-1-yl)ethanone] | 7.5 nM | 2.1 nM
CN1CCN(C(=O)Cn2cc(Nc3nc4c(N5CC6CCC(C5)N6S(=O)(=O)C5CCCCC5)cccn4n3)cn2)CC1 [Example 178, 2-[4-[[8-(8-cyclohexylsulfonyl-3,8-diazabicyclo[3.2.1]octan-3-yl)-[1,2,4]triazolo[1,5-a]pyridin-2-yl]amino]pyrazol-1-yl]-1-(4-methylpiperazin-1-yl)ethanone; formic acid] | 1.5 nM | 1.8 nM
O=C(Cn1cc(Nc2nc3c(N4CC5CCC(C4)N5C(=O)CCC(F)(F)F)cccn3n2)cn1)N1CCC(N2CCn3nccc3C2)CC1 [Example 179, 1-[3-[2-[[1-[2-[4-(6,7-dihydro-4H-pyrazolo[1,5-a]pyrazin-5-yl)-1-piperidyl]-2-oxo-ethyl]pyrazol-4-yl]amino]-[1,2,4]triazolo[1,5-a]pyridin-8-yl]-3,8-diazabicyclo[3.2.1]octan-8-yl]-4,4,4-trifluoro-butan-1-one; formic acid] | 1.3 nM | 1.6 nM
CSC1CCN(C(=O)N2C3CCC2CN(c2cccn4nc(Nc5cnn(CC(=O)N6CCN(C)CC6)c5)nc24)C3)CC1 [Example 180, 1-(4-methylpiperazin-1-yl)-2-[4-[[8-[8-(4-methylsulfanylpiperidine-1-carbonyl)-3,8-diazabicyclo[3.2.1]octan-3-yl]-[1,2,4]triazolo[1,5-a]pyridin-2-yl]amino]pyrazol-1-yl]ethanone] | 2.6 nM | 1.3 nM
CN1CCN(C(=O)Cn2cc(Nc3nc4c(N5CC6CCC(C5)N6C(=O)N5CCC(C(F)(F)F)C5)cccn4n3)cn2)CC1 (centres unmarked) [Example 181, 1-(4-methylpiperazin-1-yl)-2-[4-[[8-[8-(3-(trifluoromethyl)pyrrolidine-1-carbonyl]-3,8-diazabicyclo[3.2.1]octan-3-yl]-[1,2,4]triazolo[1,5-a]pyridin-2-yl]amino]pyrazol-1-yl]ethanone] | 1.3 nM | 0.8 nM

Source: patent US10189836B2, “Therapeutic compounds, compositions and methods of use thereof” (Genentech, Inc., priority 2015, dated 2019)
